In this assay the target is T1, human PAH with the R408W mutation (Homo sapiens, UniProt P00439, R408W).
T1 construct: expressed in transfected cells
T1 sequence (P00439 1-452 R408W): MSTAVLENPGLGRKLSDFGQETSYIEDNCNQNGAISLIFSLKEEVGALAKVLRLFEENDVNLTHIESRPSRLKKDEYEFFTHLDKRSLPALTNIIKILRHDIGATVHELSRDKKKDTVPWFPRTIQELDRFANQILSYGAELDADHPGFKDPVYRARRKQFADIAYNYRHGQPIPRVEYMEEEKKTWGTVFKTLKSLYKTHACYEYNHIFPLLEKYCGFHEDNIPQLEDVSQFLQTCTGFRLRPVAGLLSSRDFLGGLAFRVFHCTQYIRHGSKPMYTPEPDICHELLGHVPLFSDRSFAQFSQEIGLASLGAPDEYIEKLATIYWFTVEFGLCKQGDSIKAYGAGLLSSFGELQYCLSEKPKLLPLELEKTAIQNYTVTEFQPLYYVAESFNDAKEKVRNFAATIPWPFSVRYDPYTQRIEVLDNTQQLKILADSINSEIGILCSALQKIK
The experiment in a line: Cell Based Phenylalanine Flux Assay. The conditions noted are these: A375 cells expressing human R408W PAH; 24 hrs compound incubation; 13C-Tyrosine by LC-MS; average where tested multiple times; read-out: AC50.

`O=C(c1cnn2ccccc12)N1CCc2[nH]cnc2[C@H]1c1nc2cccc(Br)c2s1` [Example 1335, (S)-(4-(7-bromobenzo[d]thiazol-2-yl)-6,7-dihydro-1H-imidazo[4,5-c]pyridin-5(4H)-yl)(pyrazolo[1,5-a]pyridin-3-yl)methanone]: the AC50 is below 500 nM.

`O=C(c1cnn2ccccc12)N1CCc2[nH]cnc2[C@@H]1c1nc2cccc(Br)c2s1` [Example 1336, (R)-(4-(7-bromobenzo[d]thiazol-2-yl)-6,7-dihydro-1H-imidazo[4,5-c]pyridin-5(4H)-yl)(pyrazolo[1,5-a]pyridin-3-yl)methanone]: the AC50 was in the range of 1000 to 5000 nM.

Take `O=C(c1cnc(-c2ccc(F)cn2)o1)N1CCc2[nH]cnc2[C@H]1c1nc2ccccc2s1` [Example 1337]: the AC50 was below 500 nM.

As to `O=C(c1cnc(-c2ccc(F)cn2)o1)N1CCc2[nH]cnc2[C@@H]1c1nc2ccccc2s1` [Example 1338, (R)-(4-(benzo[d]thiazol-2-yl)-6,7-dihydro-1H-imidazo[4,5-c]pyridin-5(4H)-yl)(2-(5-fluoropyridin-2-yl)oxazol-5-yl)methanone], the half-maximal activity concentration (AC50) was in the range of 1000 to 5000 nM.

`O=C(c1cnc(-c2ccc(F)cn2)s1)N1CCc2[nH]cnc2[C@H]1c1nc2ccccc2s1` [Example 1339]: the AC50 is below 500 nM.

`O=C(c1cnc(-c2ccc(F)cn2)s1)N1CCc2[nH]cnc2[C@@H]1c1nc2ccccc2s1` [Example 1340, (R)-(4-(benzo[d]thiazol-2-yl)-6,7-dihydro-1H-imidazo[4,5-c]pyridin-5(4H)-yl)(2-(5-fluoropyridin-2-yl)thiazol-5-yl)methanone]: the half-maximal activity concentration (AC50) fell in the range of 1000 to 5000 nM.

Consider `O=C(c1scnc1C(F)(F)F)N1CCc2[nH]cnc2[C@H]1c1nc2ccccc2s1` [Example 1341], for which the half-maximal activity concentration (AC50) was below 500 nM.

`O=C(c1scnc1C(F)(F)F)N1CCc2[nH]cnc2[C@@H]1c1nc2ccccc2s1` [Example 1342, (R)-(4-(benzo[d]thiazol-2-yl)-6,7-dihydro-1H-imidazo[4,5-c]pyridin-5(4H)-yl)(4-(trifluoromethyl)thiazol-5-yl)methanone]: the AC50 was below 500 nM.

On to `Cn1cc(-c2ncc(C(=O)N3CCc4[nH]cnc4[C@@H]3c3nc4ccccc4s3)o2)cn1` [Example 1343, (R)-(4-(benzo[d]thiazol-2-yl)-6,7-dihydro-1H-imidazo[4,5-c]pyridin-5(4H)-yl)(2-(1-methyl-1H-pyrazol-4-yl)oxazol-5-yl)methanone], for which the AC50 was 1000 to 5000 nM.

Consider `Cn1cc(-c2ncc(C(=O)N3CCc4[nH]cnc4[C@H]3c3nc4ccccc4s3)o2)cn1` [Example 1344], for which the AC50 lay within 500 to 1000 nM.

For `Cn1cc(-c2ncc(C(=O)N3CCc4[nH]cnc4[C@@H]3c3nc4c(F)cccc4s3)o2)cn1` [Example 1345, (R)-(4-(4-fluorobenzo[d]thiazol-2-yl)-6,7-dihydro-1H-imidazo[4,5-c]pyridin-5(4H)-yl)(2-(1-methyl-1H-pyrazol-4-yl)oxazol-5-yl)methanone], the AC50 was 1000 to 5000 nM.

For `Cn1cc(-c2ncc(C(=O)N3CCc4[nH]cnc4[C@H]3c3nc4c(F)cccc4s3)o2)cn1` [Example 1346, (S)-(4-(4-fluorobenzo[d]thiazol-2-yl)-6,7-dihydro-1H-imidazo[4,5-c]pyridin-5(4H)-yl)(2-(1-methyl-1H-pyrazol-4-yl)oxazol-5-yl)methanone], the concentration at half-maximal activity (AC50) was 500 to 1000 nM.

`O=C(c1cnc(C(F)(F)F)o1)N1CCc2[nH]cnc2[C@H]1c1nc2ccccc2s1` [Example 1347]: the AC50 was below 500 nM.

With `O=C(c1cnc(C(F)(F)F)o1)N1CCc2[nH]cnc2[C@@H]1c1nc2ccccc2s1` [Example 1348, (R)-(4-(benzo[d]thiazol-2-yl)-6,7-dihydro-1H-imidazo[4,5-c]pyridin-5(4H)-yl)(2-(trifluoromethyl)oxazol-5-yl)methanone], the AC50 lay in the range of 1000 to 5000 nM.

Turning to `O=C(c1cnc(-c2ccc(C(F)(F)F)cn2)s1)N1CCc2[nH]cnc2[C@H]1c1nc2ccccc2s1` [Example 1349], the concentration at half-maximal activity (AC50) is 1000 to 5000 nM.

With `O=C(c1cnc(-c2ccc(C(F)(F)F)cn2)s1)N1CCc2[nH]cnc2[C@@H]1c1nc2ccccc2s1` [Example 1350, (R)-(4-(benzo[d]thiazol-2-yl)-6,7-dihydro-1H-imidazo[4,5-c]pyridin-5(4H)-yl)(2-(5-(trifluoromethyl)pyridin-2-yl)thiazol-5-yl)methanone], the AC50 fell in the range of 1000 to 5000 nM.

With `CC1(C)CC=C(c2ncc(C(=O)N3CCc4[nH]cnc4[C@H]3c3nc4ccccc4s3)s2)CC1` [Example 1351], the AC50 is 500 to 1000 nM.

As for `CC1(C)CC=C(c2ncc(C(=O)N3CCc4[nH]cnc4[C@@H]3c3nc4ccccc4s3)s2)CC1` [Example 1352, (R)-(4-(benzo[d]thiazol-2-yl)-6,7-dihydro-1H-imidazo[4,5-c]pyridin-5(4H)-yl)(2-(4,4-dimethylcyclohex-1-en-1-yl)thiazol-5-yl)methanone], the concentration at half-maximal activity (AC50) was in the range of 1000 to 5000 nM.

`CC1(C)CCC(c2ncc(C(=O)N3CCc4[nH]cnc4[C@H]3c3nc4ccccc4s3)s2)CC1` [Example 1353]: the concentration at half-maximal activity (AC50) was below 500 nM.

As for `CC1(C)CCC(c2ncc(C(=O)N3CCc4[nH]cnc4[C@@H]3c3nc4ccccc4s3)s2)CC1` [Example 1354, (R)-(4-(benzo[d]thiazol-2-yl)-6,7-dihydro-1H-imidazo[4,5-c]pyridin-5(4H)-yl)(2-(4,4-dimethylcyclohexyl)thiazol-5-yl)methanone], the half-maximal activity concentration (AC50) was in the range of 1000 to 5000 nM.

On to `O=C(c1cnc(-c2ccc(C(F)(F)F)nc2)s1)N1CCc2[nH]cnc2[C@@H]1c1nc2ccccc2s1` [Example 1355, (R)-(4-(benzo[d]thiazol-2-yl)-6,7-dihydro-1H-imidazo[4,5-c]pyridin-5(4H)-yl)(2-(6-(trifluoromethyl)pyridin-3-yl)thiazol-5-yl)methanone], for which the AC50 is 1000 to 5000 nM.

As for `O=C(c1cnc(-c2ccc(C(F)(F)F)nc2)s1)N1CCc2[nH]cnc2[C@H]1c1nc2ccccc2s1` [Example 1356], the AC50 fell in the range of 500 to 1000 nM.

In the case of `O=C(c1cnc(-c2cc(C(F)(F)F)ccn2)s1)N1CCc2[nH]cnc2[C@H]1c1nc2ccccc2s1` [Example 1357], the AC50 was below 500 nM.

Consider `O=C(c1cnc(-c2cc(C(F)(F)F)ccn2)s1)N1CCc2[nH]cnc2[C@@H]1c1nc2ccccc2s1` [Example 1358, (R)-(4-(benzo[d]thiazol-2-yl)-6,7-dihydro-1H-imidazo[4,5-c]pyridin-5(4H)-yl)(2-(4-(trifluoromethyl)pyridin-2-yl)thiazol-5-yl)methanone], for which the AC50 was in the range of 1000 to 5000 nM.

With `Cc1c(-c2ncc(C(=O)N3CCc4[nH]cnc4[C@H]3c3nc4ccccc4s3)s2)cnn1C` [Example 1359], the AC50 was below 500 nM.

As for `Cc1c(-c2ncc(C(=O)N3CCc4[nH]cnc4[C@@H]3c3nc4ccccc4s3)s2)cnn1C` [Example 1360, (R)-(4-(benzo[d]thiazol-2-yl)-6,7-dihydro-1H-imidazo[4,5-c]pyridin-5(4H)-yl)(2-(1,5-dimethyl-1H-pyrazol-4-yl)thiazol-5-yl)methanone], the half-maximal activity concentration (AC50) lay in the range of 1000 to 5000 nM.

Turning to `O=C(c1cnc(-c2cnn(CC(F)(F)F)c2)s1)N1CCc2[nH]cnc2[C@H]1c1nc2ccccc2s1` [Example 1361], the AC50 was below 500 nM.

In the case of `O=C(c1cnc(-c2cnn(CC(F)(F)F)c2)s1)N1CCc2[nH]cnc2[C@@H]1c1nc2ccccc2s1` [Example 1362, (R)-(4-(benzo[d]thiazol-2-yl)-6,7-dihydro-1H-imidazo[4,5-c]pyridin-5(4H)-yl)(2-(1-(2,2,2-trifluoroethyl)-1H-pyrazol-4-yl)thiazol-5-yl)methanone], the concentration at half-maximal activity (AC50) was 1000 to 5000 nM.

These data come from patent US20250171438A1 (Agios Pharmaceuticals, Inc., priority 2022, published 2025).
